The subject of this test is ER-alpha MCF7. Briefly: ER-alpha MCF7 HCS EC50; stated as measured by in vitro cell proliferation assays of Examples 902 and 903. Format: cell-based. The following applies: Homo sapiens, Table 2. The text has this: The CellTiter-Glo® Luminescent Cell Viability Assay is a homogeneous method to determine the number of viable cells in culture based on quantitation of the ATP present, which signals the presence of metabolically active cells. The CellTiter-Glo® Assay is designed for use with multiwell plate formats, making it ideal for automated high-throughput screening (HTS), cell proliferation and cytotoxicity assays. The homogeneous assay procedure involves adding a single reagent (CellTiter-Glo® Reagent) directly to cells cultured in serum-supplemented medium. Cell washing, removal of medium or multiple pipetting steps are not required. The Cell Titer-Glo® Luminescent Cell Viability Assay, including reagents and protocol are commercially available (Promega Corp., Madison, WI, Technical Bulletin TB288).
The assay assesses the ability of compounds to enter cells and inhibit cell proliferation. The assay principle is based on the determination of the number of viable cells present by quantitating the ATP present in a homogenous assay where addition of the Cell Titer-Glo® reagent results in cell lysis and generation of a luminescent signal through the luciferase reaction. The luminescent signal is proportional to the amount of ATP present.
Cell Culture Medium: RPMI or DMEM high glucose, 10% Fetal Bovine Serum, 2 mM L-Glutamine, P/S. Incubate O/N (overnight) at 37° C., 5% CO2.
Day 2—Add Drug to Cells, Compound Dilution, DMSO Plates (serial 1:2 for 9 points). Add 20 μl of compound at 10 mM in the 2nd column of 96 well plate. […] Add 147 μl of Media into all wells. Transfer 3 μl of DMSO+ compound from each well in the DMSO Plate to each corresponding well on Media Plate using Rapidplate® (Caliper, a Perkin-Elmer Co.). For 2 drug combination studies, transfer one drug 1.5 μl of DMSO+ compound from each well in the DMSO Plate to each corresponding well on Media Plate using Rapidplate. Then, transfer another drug 1.5 μl to the medium plate.
Drug Addition to Cells, Cell Plate (1:10 dilution): Add 6 μl of media+ compound directly to cells (54 μl of media on the cells already). Incubate 3 days at 37° C., 5% CO2 in an incubator that will not be opened often.
Day 5—Develop Plates, Thaw Cell Titer Glo Buffer at room temperature: Remove Cell Plates from 37° C. and equilibrate to room temperature for about 30 minutes. Add Cell Titer-Glo® Buffer to Cell Titer-Glo® Substrate (bottle to bottle). Add 30 μl Cell Titer-Glo® Reagent (Promega cat. #G7572) to each well of cells. Place on plate shaker for about 30 minutes. Read luminescence on Analyst HT Plate Reader (half second per well).
Cell viability assays and combination assays: Cells were seeded at 1000-2000 cells/well in 384-well plates for 16 h. On day two, nine serial 1:2 compound dilutions were made in DMSO in a 96 well plate. The compounds were further diluted into growth media using a Rapidplate® robot (Zymark Corp., Hopkinton, MA). The diluted compounds were then added to quadruplicate wells in 384-well cell plates and incubated at 37° C. and 5% CO2. After 4 days, relative numbers of viable cells were measured by luminescence using Cell Titer-Glo® (Promega) according to the manufacturer's instructions and read on a Wallac Multilabel Reader® (PerkinElmer, Foster City). EC50 values were calculated using Prism® 4.0 software (GraphPad, San Diego).
5 ul of each individual compound concentration and each control compound was transferred to the cell plate. Fulvestrant was added to control wells at a final concentration of 100 nM). DMSO was added to negative control wells (0.2% v/v).

pEC50: −log10 of the molar value.

Here are results for 19 compounds from patent publication US20250114338A1, “TETRAHYDRO-PYRIDO[3,4-b]INDOLE ESTROGEN RECEPTOR MODULATORS AND USES THEREOF” (Genentech, Inc., priority 2014, published 2025).

In general, pEC50 refers to the EC50 on a negative log10 scale, so that one unit is a factor of ten.

`C[C@@H]1Cc2c([nH]c3ccccc23)[C@@H](c2c(F)cc(/C=C/CN3CC(CF)C3)cc2F)N1CC(C)(C)F` [Example 144, (1R,3R)-1-[2,6-difluoro-4-[(E)-3-[3-(fluoromethyl)azetidin-1-yl]prop-1-enyl]phenyl]-2-(2-fluoro-2-methyl-propyl)-3-methyl-1,3,4,9-tetrahydropyrido[3,4-b]indole]: the pEC50 (MCF7, MCF7 cells) is 9.84.
The same measure, in the same setting: as for `C[C@@H]1Cc2c([nH]c3ccccc23)[C@@H](c2c(F)cc(NC3CN(CCCF)C3)cc2F)N1CC(C)(C)F` [Example 145, N-(3,5-difluoro-4-((1R,3R)-2-(2-fluoro-2-methylpropyl)-3-methyl-2,3,4,9-tetrahydro-1H-pyrido[3,4-b]indol-1-yl)phenyl)-1-(3-fluoropropyl)azetidin-3-amine], the figure is 10.02.
On to `C[C@@H]1Cc2c([nH]c3ccccc23)[C@@H](c2c(F)cc(OCCN3CC(CF)C3)cc2F)N1CC1CC(F)(F)C1` [Example 146, (1R,3R)-2-[(3,3-difluorocyclobutyl)methyl]-1-[2,6-difluoro-4-[2-[3-(fluoromethyl)azetidin-1-yl]ethoxy]phenyl]-3-methyl-1,3,4,9-tetrahydropyrido[3,4-b]indole], for which the pEC50 (MCF7, MCF7 cells) is 8.00.
The same measure, in the same setting: for `C[C@@H]1Cc2c([nH]c3ccccc23)[C@@H](c2c(F)cc(OCCN3CC(CF)C3)cc2F)N1CC(C)(C)C` [Example 147, (1R,3R)-1-[2,6-difluoro-4-[2-[3-(fluoromethyl)azetidin-1-yl]ethoxy]phenyl]-2-(2,2-dimethylpropyl)-3-methyl-1,3,4,9-tetrahydropyrido[3,4-b]indole] the value was 9.16; for `C[C@@H]1Cc2c([nH]c3ccccc23)[C@@H](c2c(F)cc(OCCN3CC(CF)C3)cc2F)N1C(=O)C1CCC1` [Example 148, cyclobutyl-[(1R,3R)-1-[2,6-difluoro-4-[2-[3-(fluoromethyl)azetidin-1-yl]ethoxy]phenyl]-3-methyl-1,3,4,9-tetrahydropyrido[3,4-b]indol-2-yl]methanone], 8.83.
As for `C[C@@H]1Cc2c([nH]c3ccccc23)[C@@H](c2c(F)cc(OCCN3CC(CF)C3)cc2F)N1C(=O)C1CCCC1` [Example 149, cyclopentyl-[(1R,3R)-1-[2,6-difluoro-4-[2-[3-(fluoromethyl)azetidin-1-yl]ethoxy]phenyl]-3-methyl-1,3,4,9-tetrahydropyrido[3,4-b]indol-2-yl]methanone], the negative logarithm of the EC50 (pEC50) (MCF7, MCF7 cells) was 8.67.
Still for that read-out and setting: as for `C[C@H]1CCN(CCOc2cc(F)c([C@@H]3c4[nH]c5ccccc5c4C[C@@H](C)N3CC(C)(C)F)c(F)c2)C1` [Example 150, (1R,3R)-1-[2,6-difluoro-4-[2-[(3S)-3-methylpyrrolidin-1-yl]ethoxy]phenyl]-2-(2-fluoro-2-methyl-propyl)-3-methyl-1,3,4,9-tetrahydropyrido[3,4-b]indole], the figure is 9.32; as for `C[C@H](COc1cc(F)c([C@@H]2c3[nH]c4ccccc4c3C[C@@H](C)N2CC(C)(C)F)c(F)c1)N1CCCC1` [Example 151, (1R,3R)-1-[2,6-difluoro-4-[(2R)-2-pyrrolidin-1-ylpropoxy]phenyl]-2-(2-fluoro-2-methyl-propyl)-3-methyl-1,3,4,9-tetrahydropyrido[3,4-b]indole], 9.81.
On the same count and under the same terms, for `CCCN1CC(COc2cc(F)c([C@@H]3c4[nH]c5ccccc5c4C[C@@H](C)N3CC(C)(C)F)c(F)c2)C1` [Example 152, (1R,3R)-1-[2,6-difluoro-4-[(1-propylazetidin-3-yl)methoxy]phenyl]-2-(2-fluoro-2-methyl-propyl)-3-methyl-1,3,4,9-tetrahydropyrido[3,4-b]indole] the value was 9.44.
Still for that read-out and setting: for `C[C@@H]1Cc2c([nH]c3ccccc23)[C@@H](c2c(F)cc(OCCN3CC(CF)C3)cc2F)N1CC1(F)CCC1` [Example 153, (1R,3R)-1-[2,6-difluoro-4-[2-[3-(fluoromethyl)azetidin-1-yl]ethoxy]phenyl]-2-[(1-fluorocyclobutyl)methyl]-3-methyl-1,3,4,9-tetrahydropyrido[3,4-b]indole] the value was 9.66.
Regarding `C[C@@H]1Cc2c([nH]c3ccccc23)[C@@H](c2c(F)cc(OCCN3CC(CF)C3)cc2F)N1C[C@](C)(F)CO` [Example 154, (S)-3-((1R,3R)-1-(2,6-difluoro-4-(2-(3-(fluoromethyl)azetidin-1-yl)ethoxy)phenyl)-3-methyl-3,4-dihydro-1H-pyrido[3,4-b]indol-2(9H)-yl)-2-fluoro-2-methylpropan-1-ol], the negative logarithm of the EC50 (pEC50) (MCF7, MCF7 cells) was 10.48.
`C[C@@H]1Cc2c([nH]c3ccccc23)[C@@H](c2c(F)cc(OCCN3CC(CF)C3)cc2F)N1C[C@@](C)(F)CO` [Example 155, (2R)-3-[(1R,3R)-1-[2,6-difluoro-4-[2-[3-(fluoromethyl)azetidin-1-yl]ethoxy]phenyl]-3-methyl-1,3,4,9-tetrahydropyrido[3,4-b]indol-2-yl]-2-fluoro-2-methyl-propan-1-ol]: the pEC50 (MCF7, MCF7 cells) was 10.10.
On the same count and under the same terms, for `C[C@@H]1Cc2c([nH]c3ccccc23)[C@@H](c2ccc(OCCN3CC(CF)C3)cc2)N1CC(C)(C)F` [Example 156, (1R,3R)-1-[4-[2-[3-(fluoromethyl)azetidin-1-yl]ethoxy]phenyl]-2-(2-fluoro-2-methyl-propyl)-3-methyl-1,3,4,9-tetrahydropyrido[3,4-b]indole] the value was 9.47.
The same measure, in the same setting: as for `C[C@@H]1Cc2c([nH]c3ccccc23)[C@@H](c2c(F)cc(OCCN3CC(CF)C3)cc2F)N1C(=O)CC1CC1` [Example 157, 2-cyclopropyl-1-[(1R,3R)-1-[2,6-difluoro-4-[2-[3-(fluoromethyl)azetidin-1-yl]ethoxy]phenyl]-3-methyl-1,3,4,9-tetrahydropyrido[3,4-b]indol-2-yl]ethanone], the figure is 8.30.
For the compound `C[C@@H]1Cc2c([nH]c3ccccc23)[C@@H](c2c(F)cc(OCCN3CC(CF)C3)cc2F)N1C(=O)CC1CCC1` [Example 158, 2-cyclobutyl-1-[(1R,3R)-1-[2,6-difluoro-4-[2-[3-(fluoromethyl)azetidin-1-yl]ethoxy]phenyl]-3-methyl-1,3,4,9-tetrahydropyrido[3,4-b]indol-2-yl]ethanone], the pEC50 (MCF7, MCF7 cells) was 8.00.
In the case of `C[C@@H]1Cc2c([nH]c3ccccc23)[C@@H](c2c(F)cc(OCCN3CC(CF)C3)cc2F)N1C(=O)C(C)(F)F` [Example 159, 1-[(1R,3R)-1-[2,6-difluoro-4-[2-[3-(fluoromethyl)azetidin-1-yl]ethoxy]phenyl]-3-methyl-1,3,4,9-tetrahydropyrido[3,4-b]indol-2-yl]-2,2-difluoro-propan-1-one], the pEC50 (MCF7 cells) is 9.83.
Regarding `C[C@@H]1Cc2c([nH]c3ccccc23)[C@@H](c2c(F)cc(OCCN3CC(C)(CF)C3)cc2F)N1CC(C)(C)F` [Example 160, (1R,3R)-1-[2,6-difluoro-4-[2-[3-(fluoromethyl)-3-methyl-azetidin-1-yl]ethoxy]phenyl]-2-(2-fluoro-2-methyl-propyl)-3-methyl-1,3,4,9-tetrahydropyrido[3,4-b]indole], the pEC50 (MCF7, MCF7 cells) was 9.55.
The same measure, in the same setting: as for `C[C@@H]1Cc2c([nH]c3ccccc23)[C@@H](c2c(F)cc(OC3CN(C)C3)cc2F)N1CC(C)(C)F` [Example 161, (1R,3R)-1-[2,6-difluoro-4-(1-methylazetidin-3-yl)oxy-phenyl]-2-(2-fluoro-2-methyl-propyl)-3-methyl-1,3,4,9-tetrahydropyrido[3,4-b]indole], the figure is 10.38.
Same read-out and setting: for `CCN1CC(Oc2cc(F)c([C@@H]3c4[nH]c5ccccc5c4C[C@@H](C)N3CC(C)(C)F)c(F)c2)C1` [Example 162, (1R,3R)-1-[4-(1-ethylazetidin-3-yl)oxy-2,6-difluoro-phenyl]-2-(2-fluoro-2-methyl-propyl)-3-methyl-1,3,4,9-tetrahydropyrido[3,4-b]indole] the value was 10.28.
